# Laboratory results: US4156729A, “1,2-Benzisothiazolin-3-ones” (Bayer Aktiengesellschaft, priority 1976, dated 1979)
# Columns and labels:
# Rat PRP = test: In vitro ADP-induced thrombocyte aggregation inhibition, rat PRP; assay type: cell-based; conditions: 10 min preincubation, 37° C.
# Protocol: (§1) In vitro: Blood from healthy human test subjects of both sexes, and blood of rabbits and rats is used. One part of 3.8% strength aqueous sodium citrate solution, as an anticoagulant, is mixed with nine parts of blood. Centrifugation of this blood gives a platelet-rich citrate plasma (PRP); see generally Jurgens/Beller, Klinische Methoden der Blutgerinnungsanalyse, Thieme Verlag, Stuttgart (1959).
# (§2) A mixture of 0.8 ml of PRP and 0.1 ml of the active compound solution is preincubated for 10 minutes at 37° C. Thrombocyte aggregation is then determined by the turbidimetric method of Born [J. Physiol. (London) 162, 67 (1962)] in an aggregometer at 37° C. [see generally Therapeutische Berichte, 47, 80-86 (1975)]. An aggregation-initiating agent (0.1 ml) such as collagen or ADP is thus added to the preincubated sample. The change in the optical density in the sample of PRP is recorded over a period of 6 minutes and the percentage inhibition is then calculated from the integrated area or the deflection.
# (§3) Table I presents ranges of concentration at which the thrombocyte aggregation is inhibited by a value of 50% utilizing 2-(2-diethylaminoethyl)-4,6-dimethyl-1,2-benzisothiazolin-3-one (as the 1,5-naphthalenedisulfonate hemisalt) [compound A].
# Human PRP = test: In vitro ADP-induced thrombocyte aggregation inhibition, human PRP; assay type: cell-based; conditions: 10 min preincubation, 37° C.
# Protocol: as §1, §2, §3
# [1] = test system: thrombocyte aggregation in PRP of rats; test: Inhibition of collagen-induced thrombocyte aggregation in PRP of rats upon in vivo administration; conditions: rat, 10 mg/kg oral, 90 minutes after administration, *=statistically significant (p 0.05)
# Protocol: as §2
# (§4) In carrying out these experiments, the compound is administered orally in a tragacanth suspension. The animals are then bled, 90 minutes (rats) or 2 hours (rabbits), after administration, and the PRP is isolated by centrifuging. After isolating the PRP, the measurement of the aggregation inhibition is conducted in vitro analogously to the process described for Table I, without however any preincubation of the samples. Three parts of the rat PRP are furthermore diluted with 1 part of physiological sodium chloride solution.
# [2] = test system: thrombocyte aggregation in PRP of rabbits; test: Inhibition of collagen-induced thrombocyte aggregation in PRP of rabbits upon in vivo administration; conditions: rabbit, 30 mg/kg oral, 2 hours after administration, *=statistically significant (p 0.05)
# Protocol: as §2, §4
# [3] = test system: thrombocyte aggregation in PRP of rabbits; test: Inhibition of ADP-induced thrombocyte aggregation in PRP of rabbits upon in vivo administration; conditions: rabbit, 30 mg/kg oral, 2 hours after administration, *=statistically significant (p 0.05)
# Protocol: as §2, §4
# [4] = test system: thrombocyte aggregation in PRP of rats; test: Inhibition of ADP-induced thrombocyte aggregation in PRP of rats upon in vivo administration; conditions: rat, 30 mg/kg oral, 90 minutes after administration, *=statistically significant (p 0.05)
# Protocol: as §2, §4
# Rabbit PRP [5] = test: In vitro ADP-induced thrombocyte aggregation inhibition, rabbit PRP; assay type: cell-based; conditions: Oryctolagus cuniculus, 10 min preincubation, 37° C.
# Protocol: as §1, §2, §3
# [6] = test system: thrombus formation in left carotid artery of a rat; test: Inhibition of thrombus formation in vivo (rat carotid artery); conditions: 30 mg/kg oral, immediately before the procedure, thrombus isolated 4 hours later
# Protocol: In this experiment, the left carotid artery of a rat is exposed and cooled to minus 15° C. to stimulate thrombus formation. At the same time, the blood flow is reduced by means of a silver clip. The thrombus is isolated from the artery 4 hours later and is weighted. The table indicates the percentage reduction in weight of the thrombus when the test compound is administered immediately before the procedure.
# Rabbit PRP [7] = test: In vitro collagen-induced thrombocyte aggregation inhibition, rabbit PRP; assay type: cell-based; conditions: Oryctolagus cuniculus, 10 min preincubation, 37° C.
# Protocol: as §1, §2, §3
# ADP-induced aggregation [8] = test: ADP-induced aggregation in vitro (summary statement); assay type: cell-based; conditions: relative to the compounds according to the invention
# Protocol: as §1, §2
# ADP-induced aggregation [9] = test: Activity in vivo at the tested doses (summary statement)
# Protocol: as §4
Structure (SMILES),IC50 (Rat PRP) [µg/mL],IC50 (Human PRP) [µg/mL],Percent inhibition (1) (integrated area) [1] [%],Percent inhibition (2) (amplitude) [1] [%],Percent inhibition (1) (integrated area) [2] [%],Percent inhibition (2) (amplitude) [2] [%],Percent inhibition (1) (integrated area) [3] [%],Percent inhibition (2) (amplitude) [3] [%],Percent inhibition (1) (integrated area) [4] [%],Percent inhibition (2) (amplitude) [4] [%],IC50 (Rabbit PRP [5]) [µg/mL],Percentage inhibition (percentage reduction in weight of the thrombus) [6] [Percentage],IC50 (Rabbit PRP [7]) [µg/mL],activity in vitro (ADP-induced aggregation [8]),activity in vivo (ADP-induced aggregation [9])
CC(=O)Oc1ccccc1C(=O)O [Acetylsalicylic acid],> 10,> 100,31,35,63,58,15,6,15,27,> 10,,,,
"CCN(CC)CCn1sc2cc(C)cc(C)c2c1=O [Compound A, 2-(2-diethylaminoethyl)-4,6-dimethyl-1,2-benzisothiazolin-3-one]",1,,72,71,74,72,33,54,45,77,1,48,1,,
OCCN(CCO)c1nc(N2CCCCC2)c2nc(N(CCO)CCO)nc(N3CCCCC3)c2n1 [Dipyridamol],> 10,> 100,5,7,,,,,,-23,,17,,substantially less active in vitro,inactive at the tested doses in vivo
O=C1C(CC[S+]([O-])c2ccccc2)C(=O)N(c2ccccc2)N1c1ccccc1 (centres unmarked) [Sulfinepyrazone],> 10,> 100,-3,0,,,,,,-5,,,,substantially less active in vitro,inactive at the tested doses in vivo
